Assay results published in patent US10004701B2, “Methods and compositions for treating infection” (UNIVERSITY OF ROCHESTER, priority 2012, dated 2018).
Counter-ions that a name gives are not always drawn. Like-named read-outs stand apart in the source and are kept apart here.

Tests used:
Test in all cases: AK assay 384-well format, Prestwick library screening
E. faecium = type: cell-based, Enterococcus faecium; conditions: 50 μM final drug concentration; for fold induction at 50 µM: Enterococcus faecium, 3 h
[1] = tested on: S. aureus strain USA300-0114; type: cell-based, Staphylococcus aureus; conditions: 50 μM final drug concentration; for fold induction at 50 µM: Staphylococcus aureus, USA300, 3 h
E. cloacae = type: cell-based, Enterobacter cloacae; conditions: 50 μM final drug concentration; for fold induction at 50 µM: Enterobacter cloacae, 3 h
P. aeruginosa = type: cell-based, Pseudomonas aeruginosa; conditions: 50 μM final drug concentration; for fold induction at 50 µM: Pseudomonas aeruginosa, 3 h
E. coli = type: cell-based, Escherichia coli; conditions: 50 μM final drug concentration; for fold induction at 50 µM: Escherichia coli, 3 h
K. pneumoniae = type: cell-based, Klebsiella pneumoniae; conditions: 50 μM final drug concentration; for fold induction at 50 µM: Klebsiella pneumoniae, 3 h
[2] = tested on: A. baumannii strain 98-37-09; type: cell-based, Acinetobacter baumannii; conditions: 50 μM final drug concentration; for fold induction at 50 µM: Acinetobacter baumannii, 983709, 3 h
[3] = planktonic E. faecium, cutoff for positive-scoring molecules 3-fold increase, read-out: AK-based Prestwick Library Screening Results, E. faecium (increase in extracellular AK activity)
[4] = planktonic S. aureus, cutoff for positive-scoring molecules 3-fold increase, read-out: AK-based Prestwick Library Screening Results, S. aureus (increase in extracellular AK activity)
[5] = planktonic E. cloacae, cutoff for positive-scoring molecules 3-fold increase, read-out: AK-based Prestwick Library Screening Results, E. cloacae (increase in extracellular AK activity)
[6] = planktonic P. aeruginosa, cutoff for positive-scoring molecules 3-fold increase, read-out: AK-based Prestwick Library Screening Results, P. aeruginosa (increase in extracellular AK activity)
[7] = planktonic E. coli, cutoff for positive-scoring molecules 3-fold increase, read-out: AK-based Prestwick Library Screening Results, E. coli (increase in extracellular AK activity)
[8] = planktonic K. pneumoniae, cutoff for positive-scoring molecules 3-fold increase, read-out: AK-based Prestwick Library Screening Results, K. pneumoniae (increase in extracellular AK activity)
[9] = planktonic A. baumannii, cutoff for positive-scoring molecules 3-fold increase, read-out: AK-based Prestwick Library Screening Results, A. baumannii (increase in extracellular AK activity)
[10] = 384-well format, cutoff for positive-scoring molecules 3-fold increase
[11] = planktonic E. faecium, 384-well, cutoff for positive-scoring molecules 3-fold increase, read-out: AK-based Prestwick Library Screening Results: E. faecium (increase in extracellular AK activity)
[12] = planktonic S. aureus, 384-well, cutoff for positive-scoring molecules 3-fold increase, read-out: AK-based Prestwick Library Screening Results: S. aureus (increase in extracellular AK activity)
[13] = planktonic E. cloacae, 384-well, cutoff for positive-scoring molecules 3-fold increase, read-out: AK-based Prestwick Library Screening Results: E. cloacae (increase in extracellular AK activity)
[14] = planktonic P. aeruginosa, 384-well, cutoff for positive-scoring molecules 3-fold increase, read-out: AK-based Prestwick Library Screening Results: P. aeruginosa (increase in extracellular AK activity)
[15] = planktonic E. coli, 384-well, cutoff for positive-scoring molecules 3-fold increase, read-out: AK-based Prestwick Library Screening Results: E. coli (increase in extracellular AK activity)
[16] = planktonic K. pneumoniae, 384-well, cutoff for positive-scoring molecules 3-fold increase, read-out: AK-based Prestwick Library Screening Results: K. pneumoniae (increase in extracellular AK activity)
[17] = planktonic A. baumannii, 384-well, cutoff for positive-scoring molecules 3-fold increase, read-out: AK-based Prestwick Library Screening Results: A. baumannii (increase in extracellular AK activity)
[18] = planktonic, cutoff for positive-scoring molecules 3-fold increase, read-out: AK-based Prestwick Library Screening Results, E. faecium (fold increase in extracellular AK activity)
[19] = planktonic, cutoff for positive-scoring molecules 3-fold increase, read-out: AK-based Prestwick Library Screening Results, S. aureus (fold increase in extracellular AK activity)
[20] = planktonic, cutoff for positive-scoring molecules 3-fold increase, read-out: AK-based Prestwick Library Screening Results, E. cloacae (fold increase in extracellular AK activity)
[21] = planktonic, cutoff for positive-scoring molecules 3-fold increase, read-out: AK-based Prestwick Library Screening Results, P. aeruginosa (fold increase in extracellular AK activity)
[22] = planktonic, cutoff for positive-scoring molecules 3-fold increase, read-out: AK-based Prestwick Library Screening Results, E. coli (fold increase in extracellular AK activity)
[23] = planktonic, cutoff for positive-scoring molecules 3-fold increase, read-out: AK-based Prestwick Library Screening Results, K. pneumoniae (fold increase in extracellular AK activity)
[24] = planktonic, cutoff for positive-scoring molecules 3-fold increase, read-out: AK-based Prestwick Library Screening Results, A. baumannii (fold increase in extracellular AK activity)

SMILES: c1ccc(C2CN3CCSC3=N2)cc1 (stereo not shown) [Tetramisole hydrochloride]
- fold induction at 50 µM (E. faecium; planktonic, cutoff for positive 3-fold increase, read-out: AK-based Prestwick Library Screening Results, E. faecium (fold increase in extracellular AK activity)): 1
- fold induction at 50 µM ([1]; planktonic, cutoff for positive 3-fold increase, read-out: AK-based Prestwick Library Screening Results, S. aureus (fold increase in extracellular AK activity)): 1.1
- fold induction at 50 µM (E. cloacae; planktonic, cutoff for positive 3-fold increase, read-out: AK-based Prestwick Library Screening Results, E. cloacae (fold increase in extracellular AK activity)): 1.4
- fold induction at 50 µM (P. aeruginosa; planktonic, cutoff for positive 3-fold increase, read-out: AK-based Prestwick Library Screening Results, P. aeruginosa (fold increase in extracellular AK activity)): 1.2
- fold induction at 50 µM (E. coli; planktonic, cutoff for positive 3-fold increase, read-out: AK-based Prestwick Library Screening Results, E. coli (fold increase in extracellular AK activity)): 1.3
- fold induction at 50 µM (K. pneumoniae; planktonic, cutoff for positive 3-fold increase, read-out: AK-based Prestwick Library Screening Results, K. pneumoniae (fold increase in extracellular AK activity)): 1.1
- fold induction at 50 µM ([2]; planktonic, cutoff for positive 3-fold increase, read-out: AK-based Prestwick Library Screening Results, A. baumannii (fold increase in extracellular AK activity)): 1.4

SMILES: COc1cc2c(cc1OC)-c1cc3ccc(OC)c(OC)c3c[n+]1CC2 [Palmatine chloride]
- fold induction at 50 µM (E. faecium; [3]): 1
- fold induction at 50 µM [1, 4]: 0.8
- fold induction at 50 µM (E. cloacae; [5]): 0.9
- fold induction at 50 µM (P. aeruginosa; [6]): 0.7
- fold induction at 50 µM (E. coli; [7]): 0.7
- fold induction at 50 µM (K. pneumoniae; [8]): 0.5
- fold induction at 50 µM [2, 9]: 0.7

SMILES: CC(=O)Oc1cc(C(F)(F)F)ccc1C(=O)O [Triflusal]
- fold induction at 50 µM (E. faecium; planktonic, […], read-out: AK-based Prestwick Library Screening Results, E. faecium (fold increase in extracellular AK activity)): 1
- fold induction at 50 µM ([1]; planktonic, […], read-out: AK-based Prestwick Library Screening Results, S. aureus (fold increase in extracellular AK activity)): 1.4
- fold induction at 50 µM (E. cloacae; planktonic, […], read-out: AK-based Prestwick Library Screening Results, E. cloacae (fold increase in extracellular AK activity)): 1.3
- fold induction at 50 µM (P. aeruginosa; planktonic, […], read-out: AK-based Prestwick Library Screening Results, P. aeruginosa (fold increase in extracellular AK activity)): 1.2
- fold induction at 50 µM (E. coli; planktonic, […], read-out: AK-based Prestwick Library Screening Results, E. coli (fold increase in extracellular AK activity)): 1.2
- fold induction at 50 µM (K. pneumoniae; planktonic, […], read-out: AK-based Prestwick Library Screening Results, K. pneumoniae (fold increase in extracellular AK activity)): 0.9
- fold induction at 50 µM ([2]; planktonic, […], read-out: AK-based Prestwick Library Screening Results, A. baumannii (fold increase in extracellular AK activity)): 1

SMILES: C[C@]12CCC(=O)C=C1CC[C@@H]1[C@@H]2C(=O)C[C@@]2(C)[C@H]1CC[C@]2(O)C(=O)CO [Cortisone]
- AK-based Prestwick Library Screening Results, E. faecium (increase in extracellular AK activity) (E. faecium; [10]): 0.9
- AK-based Prestwick Library Screening Results, S. aureus (increase in extracellular AK activity) [1, 10]: 0.8
- AK-based Prestwick Library Screening Results, E. cloacae (increase in extracellular AK activity) (E. cloacae; [10]): 1.2
- AK-based Prestwick Library Screening Results, P. aeruginosa (increase in extracellular AK activity) (P. aeruginosa; [10]): 1.0
- AK-based Prestwick Library Screening Results, E. coli (increase in extracellular AK activity) (E. coli; [10]): 0.9
- AK-based Prestwick Library Screening Results, K. pneumoniae (increase in extracellular AK activity) (K. pneumoniae; [10]): 0.8
- AK-based Prestwick Library Screening Results, A. baumannii (increase in extracellular AK activity) [2, 10]: 1.0

SMILES: CC(C)NCC(O)COc1ccc(COCCOC(C)C)cc1 (stereo not shown) [Bisoprolol fumarate]
- fold induction at 50 µM (E. faecium; [11]): 0.9
- fold induction at 50 µM [1, 12]: 0.6
- fold induction at 50 µM (E. cloacae; [13]): 0.6
- fold induction at 50 µM (P. aeruginosa; [14]): 0.5
- fold induction at 50 µM (E. coli; [15]): 0.5
- fold induction at 50 µM (K. pneumoniae; [16]): 0.5
- fold induction at 50 µM [2, 17]: 0.5

SMILES: CC(C(=O)O)c1ccc(C(=O)c2cccs2)cc1 (stereo not shown) [Suprofen]
- fold induction at 50 µM (E. faecium; [18]): 0.9
- fold induction at 50 µM [1, 19]: 0.6
- fold induction at 50 µM (E. cloacae; [20]): 0.9
- fold induction at 50 µM (P. aeruginosa; [21]): 0.7
- fold induction at 50 µM (E. coli; [22]): 0.7
- fold induction at 50 µM (K. pneumoniae; [23]): 0.7
- fold induction at 50 µM [2, 24]: 0.8

SMILES: CNCCCN1c2ccccc2CCc2ccccc21 [Desipramine hydrochloride]
- fold induction at 50 µM (E. faecium; [3]): 0.8
- fold induction at 50 µM [1, 4]: 0.7
- fold induction at 50 µM (E. cloacae; [5]): 0.8
- fold induction at 50 µM (P. aeruginosa; [6]): 0.9
- fold induction at 50 µM (E. coli; [7]): 0.9
- fold induction at 50 µM (K. pneumoniae; [8]): 0.7
- fold induction at 50 µM [2, 9]: 0.7

SMILES: CO[C@H]1C[C@H](O[C@H]2[C@H](C)[C@@H](O[C@@H]3O[C@H](C)C[C@H](N(C)C)[C@H]3O)[C@@H](C)C[C@@]3(CO3)C(=O)[C@H](C)[C@@H](O)[C@@H](C)[C@@H](C)OC(=O)[C@@H]2C)O[C@@H](C)[C@@H]1O [Oleandomycin phosphate]
- fold induction at 50 µM (E. faecium; [11]): 1
- fold induction at 50 µM [1, 12]: 3.6
- fold induction at 50 µM (E. cloacae; [13]): 1.6
- fold induction at 50 µM (P. aeruginosa; [14]): 1
- fold induction at 50 µM (E. coli; [15]): 1.1
- fold induction at 50 µM (K. pneumoniae; [16]): 1
- fold induction at 50 µM [2, 17]: 1.1

SMILES: NC(=NCc1ccccc1)NC(=O)c1nc(Cl)c(N)nc1N [Benzamil hydrochloride]
- fold induction at 50 µM (E. faecium; [18]): 1.1
- fold induction at 50 µM [1, 19]: 0.7
- fold induction at 50 µM (E. cloacae; [20]): 0.7
- fold induction at 50 µM (P. aeruginosa; [21]): 0.6
- fold induction at 50 µM (E. coli; [22]): 0.6
- fold induction at 50 µM (K. pneumoniae; [23]): 0.6
- fold induction at 50 µM [2, 24]: 0.6

SMILES: Nc1ccc(O)c(C(=O)O)c1 [Mesalamine]
- fold induction at 50 µM (E. faecium; planktonic E. faecium, positive cutoff 3-fold increase, read-out: AK-based Prestwick library screening result, E. faecium (fold increase in extracellular AK activity)): 0.9
- fold induction at 50 µM ([1]; planktonic S. aureus, positive cutoff 3-fold increase, read-out: AK-based Prestwick library screening result, S. aureus (fold increase in extracellular AK activity)): 0.7
- fold induction at 50 µM (E. cloacae; planktonic E. cloacae, positive cutoff 3-fold increase, read-out: AK-based Prestwick library screening result, E. cloacae (fold increase in extracellular AK activity)): 1
- fold induction at 50 µM (P. aeruginosa; planktonic P. aeruginosa, positive cutoff 3-fold increase, read-out: AK-based Prestwick library screening result, P. aeruginosa (fold increase in extracellular AK activity)): 0.9
- fold induction at 50 µM (E. coli; planktonic E. coli, positive cutoff 3-fold increase, read-out: AK-based Prestwick library screening result, E. coli (fold increase in extracellular AK activity)): 0.9
- fold induction at 50 µM (K. pneumoniae; planktonic K. pneumoniae, positive cutoff 3-fold increase, read-out: AK-based Prestwick library screening result, K. pneumoniae (fold increase in extracellular AK activity)): 0.7
- fold induction at 50 µM ([2]; planktonic A. baumannii, positive cutoff 3-fold increase, read-out: AK-based Prestwick library screening result, A. baumannii (fold increase in extracellular AK activity)): 0.9
